Data: ChEMBL document CHEMBL5338804 (J Med Chem, 2023)

Assays:
[1] = biological target: Glycogen synthase kinase-3 beta (Homo sapiens, UniProt P49841, H355L); assay: Displacement of FL-KRREILSRRP[ps]ERYR-NH2 from human recombinant N-terminal His6-tagged GSK-3-beta (14 to 306 residues) H355L mutant expressed in baculovirus-infected Sf21 cells incubated for 20 hrs by fluorescence based analysis
[2] = biological target: Glycogen synthase kinase-3 alpha (Homo sapiens, UniProt P49840); assay: Displacement of FL-KRREILSRRP[ps]ERYR-NH2 from human recombinant full length GST-tagged GSK-3-alpha expressed in insect cells incubated for 20 hrs by fluorescence based analysis; design: species or system Insect cell
Chain of Glycogen synthase kinase-3 alpha (P49840 whole entry): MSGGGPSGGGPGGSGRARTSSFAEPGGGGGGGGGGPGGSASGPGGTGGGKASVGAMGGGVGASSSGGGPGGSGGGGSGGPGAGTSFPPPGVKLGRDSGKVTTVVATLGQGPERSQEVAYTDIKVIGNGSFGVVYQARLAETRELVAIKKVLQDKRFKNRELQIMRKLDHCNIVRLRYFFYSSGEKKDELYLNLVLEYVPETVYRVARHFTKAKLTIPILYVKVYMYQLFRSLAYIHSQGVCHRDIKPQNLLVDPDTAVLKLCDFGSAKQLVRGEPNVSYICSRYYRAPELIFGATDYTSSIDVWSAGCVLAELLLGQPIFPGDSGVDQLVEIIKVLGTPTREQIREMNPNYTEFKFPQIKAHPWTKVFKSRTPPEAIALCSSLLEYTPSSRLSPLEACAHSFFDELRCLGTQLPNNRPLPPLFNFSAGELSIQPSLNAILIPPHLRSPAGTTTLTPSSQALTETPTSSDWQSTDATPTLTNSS

[3] = Metabolic stability in mouse liver microsomes assessed as parent compound remaining at 0.5 uM measured after 10 mins in presence of NADPH by LC-MS/MS analysis; format: ADME, Microsome; settings: read-out: Stability
[4] = biological target: Glycogen synthase kinase-3 (Homo sapiens, UniProt P49840+P49841); assay: Inhibition of GSK-3 in human U2OS cells transfected with beta-catenin GFP and 4R1N tau plasmid assessed as inhibition of Tau phosphorylation at Ser396 residues by high-content imaging assay; format: cell-based
[5] = Metabolic stability in rat liver microsomes assessed as parent compound remaining at 0.5 uM measured after 10 mins in presence of NADPH by LC-MS/MS analysis; format: ADME, Microsome; settings: read-out: Stability
[6] = Metabolic stability in human liver microsomes assessed as parent compound remaining at 0.5 uM measured after 10 mins in presence of NADPH by LC-MS/MS analysis; format: ADME, Microsome; settings: read-out: Stability
[7] = Volume of distribution at steady state in C57BL/6 mouse at 2 mg/kg, iv by LC-MS/MS analysis; format: ADME, organism-based; settings: in vivo, read-out: Vdss
[8] = Permeability of the compound from apical to basolateral side in human Caco-2 cells at 3 uM incubated for 2 hrs by LC-MS/MS analysis; format: ADME, cell-based; settings: read-out: permeability
[9] = Clearance in C57BL/6 mouse at 2 mg/kg, iv by LC-MS/MS analysis; format: ADME, organism-based; settings: in vivo
[10] = Permeability of the compound at 100 uM incubated for 4 hrs at pH 7.4 by PAMPA assay; format: ADME; settings: read-out: permeability
[11] = Cmax in C57BL/6 mouse at 10 mg/kg, po by LC-MS/MS analysis; format: ADME, organism-based; design: dose 10 mg/kg, route po; settings: in vivo
[12] = MRT in C57BL/6 mouse at 2 mg/kg, iv by LC-MS/MS analysis; format: ADME, organism-based; settings: in vivo
[13] = Protein binding in mouse plasma assessed as unbound fraction at 10 uM incubated for 5 hrs by equilibrium dialysis method; format: ADME, cell-free
[14] = Protein binding in human plasma assessed as unbound fraction at 10 uM incubated for 5 hrs by equilibrium dialysis method; format: ADME, cell-free
[15] = Permeability of the compound from basolateral to apical side in human Caco-2 cells at 3 uM incubated for 2 hrs by LC-MS/MS analysis; format: ADME, cell-based; settings: read-out: permeability
[16] = Oral bioavailability in C57BL/6 mouse at 10 mg/kg by LC-MS/MS analysis; format: ADME, organism-based; settings: in vivo
[17] = Half life in C57BL/6 mouse at 2 mg/kg, iv by LC-MS/MS analysis; format: ADME, organism-based; settings: in vivo
[18] = AUC (total) in C57BL/6 mouse at 10 mg/kg, po by LC-MS/MS analysis; format: ADME, organism-based; design: dose 10 mg/kg, route po; settings: in vivo
[19] = Protein binding in rat plasma assessed as unbound fraction at 10 uM incubated for 5 hrs by equilibrium dialysis method; format: ADME, cell-free
[20] = Selectivity ratio of IC50 for human recombinant full length GST-tagged GSK-3-alpha expressed in insect cells to IC50 for human recombinant N-terminal His6-tagged GSK-3-beta (14 to 306 residues) H355L mutant expressed in baculovirus-infected Sf21 cells
[21] = Permeability of the compound at 100 uM incubated for 4 hrs at pH 5.5 by PAMPA assay; format: ADME; settings: read-out: permeability

Chain of Glycogen synthase kinase-3 beta (P49841 whole entry, looked up, stated change not applied, the tested form may be a part): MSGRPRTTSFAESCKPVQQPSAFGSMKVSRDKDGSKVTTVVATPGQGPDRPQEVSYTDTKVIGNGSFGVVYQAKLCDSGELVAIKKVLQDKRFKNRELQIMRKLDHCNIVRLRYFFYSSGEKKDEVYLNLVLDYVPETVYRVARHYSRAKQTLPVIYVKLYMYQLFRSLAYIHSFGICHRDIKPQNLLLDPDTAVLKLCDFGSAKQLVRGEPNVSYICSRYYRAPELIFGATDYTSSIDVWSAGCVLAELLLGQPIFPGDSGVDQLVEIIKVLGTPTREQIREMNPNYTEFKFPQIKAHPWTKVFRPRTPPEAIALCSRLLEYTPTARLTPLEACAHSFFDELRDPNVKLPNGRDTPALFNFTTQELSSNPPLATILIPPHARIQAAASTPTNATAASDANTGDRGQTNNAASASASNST

`O=C(Nc1cnccc1-c1ccccc1)c1ccnc(Nc2ccc(Cl)cn2)c1` gave an IC50 [1] of 0.9 nM.

For `N#Cc1ccc(Nc2nccc(C(=O)Nc3cncnc3OCC(F)(F)F)n2)cc1`, the IC50 [2] was 0.15 nM, the remaining at 10 min, 0.5 µM [3] was 42% and the IC50 [4] was 22 nM. For the same compound, the IC50 [1] was 0.74 nM, the remaining at 10 min, 0.5 µM [5] was 61% and the remaining at 10 min, 0.5 µM [6] was 87%.

With `Cc1ccc(Nc2nccc(C(=O)Nc3cnccc3-c3ccccc3)n2)cc1` the remaining at 10 min, 0.5 µM [3] was 49%, the IC50 [4] was 71 nM and the IC50 [1] was 0.31 nM. The remaining at 10 min, 0.5 µM [5] was 1% and the remaining at 10 min, 0.5 µM [6] was 43%.

Work on `O=C(Nc1cnccc1-c1ccc(F)cc1)c1ccnc(Nc2ccc(Cl)cc2)n1` yielded a Vd [7] of 3.3 L/kg, a Papp A→B at 2 h, 3 µM [8] of 6.4 ×10⁻⁶ cm/s and an IC50 [2] of 0.88 nM. The remaining at 10 min, 0.5 µM [3] was 79%, the clearance [9] was 15.8 mL/min/kg and the Papp at 4 h, 100 µM [10] was 63.9 ×10⁻⁶ cm/s. For the same compound, the IC50 [4] was 77 nM, the Cmax [11] was 1400 nM and the IC50 [1] was 1.1 nM. The MRT [12] was 3.4 h, the fraction unbound at 5 h, 10 µM [13] was 0.004 and the fraction unbound at 5 h, 10 µM [14] was 0.002. For the same compound, the Papp B→A at 2 h, 3 µM [15] was 2.3 ×10⁻⁶ cm/s, the bioavailability [16] was 23% and the half-life [17] was 2.9 h. It also gave a remaining at 10 min, 0.5 µM [5] of 43%, an AUC [18] of 5.8 µM·h and a remaining at 10 min, 0.5 µM [6] of 80%. For the same compound, the fraction unbound at 5 h, 10 µM [19] was 0.003.

In the case of `O=C(Nc1cnccc1N1CCC(F)(F)CC1)c1ccncn1`, the IC50 [2] is reported as 470 nM, the Ratio IC50 [20] is reported as under 2 and the IC50 [1] is reported as 260 nM.

With `COc1ccc(Nc2nccc(C(=O)Nc3cnccc3-c3ccccc3)n2)cc1` the remaining at 10 min, 0.5 µM [3] was 45%, the IC50 [4] was 50 nM and the IC50 [1] was 0.45 nM. It also gave a remaining at 10 min, 0.5 µM [5] of 3% and a remaining at 10 min, 0.5 µM [6] of 21%.

In the case of `Nc1nccc(C(=O)Nc2cnccc2N2CCC(F)(F)CC2)n1`, the Ratio IC50 [20] is reported as under 2 and the IC50 [1] is reported as 30 nM.

`O=C(Nc1cnccc1-c1ccccc1)c1ccnc(Nc2ccccc2)n1` gave a remaining at 10 min, 0.5 µM [3] of 26%, an IC50 [4] of 100 nM and an IC50 [1] of 0.43 nM. It also gave a remaining at 10 min, 0.5 µM [5] of 3% and a remaining at 10 min, 0.5 µM [6] of 52%.

For `O=C(Nc1cnccc1OCC(F)(F)F)c1ccnc(Nc2ccccc2)n1`, the remaining at 10 min, 0.5 µM [3] was 14%, the IC50 [4] was 13 nM and the IC50 [1] was 0.2 nM. The remaining at 10 min, 0.5 µM [5] was 2% and the remaining at 10 min, 0.5 µM [6] was 59%.

`O=C(Nc1cnccc1-c1ccc(F)cc1)c1ccnc(Nc2ccccc2)n1` gave a remaining at 10 min, 0.5 µM [3] of 42%, an IC50 [4] of 35 nM and an IC50 [1] of 0.25 nM. For the same compound, the remaining at 10 min, 0.5 µM [5] was 1% and the remaining at 10 min, 0.5 µM [6] was 61%.

In the case of `O=C(Nc1cnccc1N1CCC(F)(F)CC1)c1ccnc(Nc2ccccc2)n1`, the remaining at 10 min, 0.5 µM [3] is reported as 3%, the IC50 [4] is reported as 8.5 nM and the IC50 [1] is reported as 0.2 nM. It also gave a remaining at 10 min, 0.5 µM [5] of 0% and a remaining at 10 min, 0.5 µM [6] of 21%.

Compound `Nc1nccc(C(=O)Nc2cccnc2)n1` has an IC50 [2] of over 2000 nM, a Ratio IC50 [20] of under 2 and an IC50 [1] of over 2000 nM.

Work on `O=C(Nc1cnccc1-c1ccccc1)c1ccnc(Nc2ccc(C(F)(F)F)cn2)c1` yielded an IC50 [4] of 49 nM and an IC50 [1] of 0.89 nM.

For `COc1ccc(Nc2nccc(C(=O)Nc3cnccc3-c3ccccc3)n2)cc1F`, the remaining at 10 min, 0.5 µM [3] was 32%, the IC50 [4] was 17 nM and the IC50 [1] was 0.18 nM. The remaining at 10 min, 0.5 µM [5] was 0.8% and the remaining at 10 min, 0.5 µM [6] was 31%.

With `O=C(Nc1cnccc1OCC(F)(F)F)c1ccnc(Nc2ccc(C(F)(F)F)cc2)n1` the remaining at 10 min, 0.5 µM [3] was 87%, the IC50 [4] was 10 nM and the IC50 [1] was 0.28 nM. For the same compound, the remaining at 10 min, 0.5 µM [5] was 82% and the remaining at 10 min, 0.5 µM [6] was 82%.

Compound `N#Cc1ccc(Nc2nccc(C(=O)Nc3cnccc3OCC(F)(F)F)n2)cc1` has a remaining at 10 min, 0.5 µM [3] of 60%, an IC50 [4] of 1.4 nM and an IC50 [1] of 0.07 nM. The remaining at 10 min, 0.5 µM [5] was 82% and the remaining at 10 min, 0.5 µM [6] was 87%.

Work on `O=C(Nc1cnccc1-c1ccccc1)c1ccnc(Nc2ccc(Cl)cc2)n1` yielded a Papp A→B at 2 h, 3 µM [8] of 8.3 ×10⁻⁶ cm/s, an IC50 [2] of 0.3 nM and a remaining at 10 min, 0.5 µM [3] of 86%. For the same compound, the Papp at 4 h, 100 µM [21] was 90 ×10⁻⁶ cm/s, the Papp at 4 h, 100 µM [10] was 85 ×10⁻⁶ cm/s and the IC50 [4] was 70 nM. For the same compound, the IC50 [1] was 0.49 nM, the Papp B→A at 2 h, 3 µM [15] was 3 ×10⁻⁶ cm/s and the remaining at 10 min, 0.5 µM [5] was 70%. For the same compound, the remaining at 10 min, 0.5 µM [6] was 78%.

In the case of `O=C(Nc1cnccc1-c1ccc(F)cc1)c1ccnc(Nc2ccc(OC(F)F)cc2)n1`, the Papp A→B at 2 h, 3 µM [8] is reported as 8.2 ×10⁻⁶ cm/s, the IC50 [2] is reported as 0.26 nM and the remaining at 10 min, 0.5 µM [3] is reported as 72%. The Papp at 4 h, 100 µM [21] was 98 ×10⁻⁶ cm/s, the Papp at 4 h, 100 µM [10] was 113 ×10⁻⁶ cm/s and the IC50 [4] was 74 nM. For the same compound, the IC50 [1] was 0.45 nM, the fraction unbound at 5 h, 10 µM [14] was 0.003 and the Papp B→A at 2 h, 3 µM [15] was 3 ×10⁻⁶ cm/s. The remaining at 10 min, 0.5 µM [5] was 62%, the remaining at 10 min, 0.5 µM [6] was 82% and the fraction unbound at 5 h, 10 µM [19] was 0.004.
